Assays:
Micrococcus luteus = assay: in vivo activity, M.I.C. on M. luteus (VM1 derivatives alone, without VS1); format: cell-based; design: key: (+) indicates multiplication of bacteria; conditions: M. luteus in LBroth, 18 h at 37° C. with shaking
Procedure: The synthesized derivatives of the present invention have been tested for antibacterial activity (in solid and liquid medium), ribosome binding affinity and synergistic activity with virginiamycin S. The tests for biological activity were carried out both in vivo and in vitro. The in vivo tests were carried out using Micrococcus luteus as the test organism with the VM1 derivatives alone (without VS1). Minimum inhibitory concentrations (MIC values) were determined on agar broth plates by standard microbiological procedures, with a range of concentrations of the VM derivatives applied to the plates. The in vitro tests of the VM derivatives were performed together with VS1, and took advantage of the unique fluorescence (F) inherent in VS1. The results are summarized in the following tables, wherein the activities are compared to virginiamycin (VM1). | M. luteus in LBroth, 18 h at 37° C. with shaking. | M. luteus in LBroth, 18 h at 37° C. with shaking.

ribosomes = assay: in vitro activity: binding to free ribosomes, VS1 fluorescence with erythromycin displacement; design: key to kobs (symbol): (*) too small to be measured. t/2 is very large; conditions: together with VS1, fluorescence
Procedure: The in vivo tests were carried out using Micrococcus luteus as the test organism with the VM1 derivatives alone (without VS1). Minimum inhibitory concentrations (MIC values) were determined on agar broth plates by standard microbiological procedures, with a range of concentrations of the VM derivatives applied to the plates. The in vitro tests of the VM derivatives were performed together with VS1, and took advantage of the unique fluorescence (F) inherent in VS1. […] Using spectrofluorometry, an increase in fluorescence can be measured when ribosomes are added to a VS1 solution. Erythromycin is known to bind at the same position on the ribosome (50-S subunit) as VS1, and when it is added to the VS1 /ribosomal mixture, a decrease in fluorescence is seen. If VM1 is added to the VS1 /ribosomal/erythromycin mixture, an increase in fluorescence can be measured. Presumably, a conformational change of the ribosomes occurs upon binding of VM1, which allows VS1 to bind preferentially and releases erythromycin from the ribosomes. The VM1 derivatives would also display this type of behavior if they bind to the ribosomes.

[1] = in vitro Activity of VM1-Ester Derivatives
[2] = in vitro Activity of VM1-Carboxylic Acid Derivatives

| SMILES | in vivo Activity of VM1-Ester Derivatives, M.I.C. on M. luteus (multiplication of bacteria) (Micrococcus luteus; Concentration 0.0625 μg/mL) | in vivo Activity of VM1-Ester Derivatives, M.I.C. on M. luteus (multiplication of bacteria) (Micrococcus luteus; Concentration 0.125 μg/mL) | in vivo Activity of VM1-Ester Derivatives, M.I.C. on M. luteus (multiplication of bacteria) (Micrococcus luteus; Concentration 0.25 μg/mL) | in vivo Activity of VM1-Ester Derivatives, M.I.C. on M. luteus (multiplication of bacteria) (Micrococcus luteus; Concentration 0.5 μg/mL) | in vivo Activity of VM1-Ester Derivatives, M.I.C. on M. luteus (multiplication of bacteria) (Micrococcus luteus; Concentration 1 μg/mL) | in vivo Activity of VM1-Ester Derivatives, M.I.C. on M. luteus (multiplication of bacteria) (Micrococcus luteus; Concentration 2 μg/mL) | in vivo Activity of VM1-Ester Derivatives, M.I.C. on M. luteus (multiplication of bacteria) (Micrococcus luteus; Concentration 4 μg/mL) | in vivo Activity of VM1-Ester Derivatives, M.I.C. on M. luteus (multiplication of bacteria) (Micrococcus luteus; Concentration 8 μg/mL) | kobs (ribosomes; [1]) [s⁻¹] | t/2 (ribosomes; [1]) [s] | kobs (symbol) (ribosomes; [1]) | in vivo Acitivity of VM1-Carboxylic Derivatives, M.I.C. on M. luteus (multiplication of bacteria) (Micrococcus luteus; Concentration 0.0625 μg/mL) | kobs (ribosomes; [2]) [s⁻¹] | t/2 (ribosomes; [2]) [s] |
| --- | --- | --- | --- | --- | --- | --- | --- | --- | --- | --- | --- | --- | --- | --- |
| CC1=C\[C@@H](O)CC(=O)Cc2nc(co2)C(=O)N2CC[C@H](SCCC(=O)OCC(Cl)(Cl)Cl)[C@H]2C(=O)O[C@H](C(C)C)[C@H](C)/C=C/C(=O)NC\C=C\1 [Ester b S,R] | + | + | + | + | + | + | + | + | 0.0009 | 721 |  |  |  |  |
| CC1=C\[C@@H](O)CC(=O)Cc2nc(co2)C(=O)N2CC[C@@H](SCCCCC(=O)OCC(Cl)(Cl)Cl)[C@@H]2C(=O)O[C@H](C(C)C)[C@H](C)/C=C/C(=O)NC\C=C\1 [Ester c R,S] | + | + | + | + | + | + | + |  | 0.020 | 34.1 |  |  |  |  |
| CC1=C\[C@@H](O)CC(=O)Cc2nc(co2)C(=O)N2CC[C@H](SCCCCC(=O)OCC(Cl)(Cl)Cl)[C@H]2C(=O)O[C@H](C(C)C)[C@H](C)/C=C/C(=O)NC\C=C\1 [Ester c S,R] | + | + | + | + | + | + | + | + |  |  | * |  |  |  |
| CC1=C\[C@@H](O)CC(=O)Cc2nc(co2)C(=O)N2CCC=C2C(=O)O[C@H](C(C)C)[C@H](C)/C=C/C(=O)NC\C=C\1 [VM1, virginiamycin M1] | + |  |  |  |  |  |  |  | 0.068 | 10.2 |  | + | 0.068 | 10.2 |
